molecular target: T1, Human NPY Y1 receptors (Homo sapiens, UniProt P25929); test: NPY Receptor Binding Assay; settings: not given
T1 construct: expressed in transfected cells; host or cells: CHO cells (membrane protein)
T1 sequence (P25929 1-384): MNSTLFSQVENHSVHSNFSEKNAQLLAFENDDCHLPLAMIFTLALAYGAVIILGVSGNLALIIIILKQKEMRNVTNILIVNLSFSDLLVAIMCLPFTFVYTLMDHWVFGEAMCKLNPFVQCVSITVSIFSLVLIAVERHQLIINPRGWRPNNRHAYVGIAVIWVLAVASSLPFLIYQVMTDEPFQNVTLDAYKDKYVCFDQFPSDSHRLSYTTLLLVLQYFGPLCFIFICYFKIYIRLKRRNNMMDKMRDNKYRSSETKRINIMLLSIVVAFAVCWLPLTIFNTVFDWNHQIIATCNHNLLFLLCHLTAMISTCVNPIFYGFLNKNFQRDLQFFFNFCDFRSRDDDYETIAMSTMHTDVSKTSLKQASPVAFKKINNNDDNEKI
Procedure: NPY Receptor Binding Assay
Human NPY Y1 receptors were expressed in CHO cells. Binding assays were performed in 50 mM HEPES, pH 7.2, 2.5 mM CaCl2, 1 mM MgCl2 and 0.1% BSA containing 5-10 μg of membrane protein and 0.1 nM […] in a total volume of 200 μl. Non-specific binding was determined in the presence of 1 μM NPY. The reaction mixtures were incubated for 90 minutes at room temperature then filtered through Millipore MAFC glass fiber filter plates which had been pre-soaked in 0.5% polyethleneimine. The filters were washed with phosphate-buffered saline, and radioactivity was measured in a Packard TopCount scintillation counter.

Row | Structure (SMILES) | Ki [µM]
1 | COc1ccc2nc(NCCc3ccc(/N=C4\SC(=O)[C@@H]5CCCN45)cc3)sc2c1 [Example 347] | > 10
2 | O=C(O)C[C@@H]1N/C(=N\c2cccc(CCNc3nc4ccccc4s3)c2)SC1=O [Example 409] | > 10
3 | O=C1S/C(=N\c2ccc(CCNc3nc4ccccc4s3)cc2)N[C@H]1Cc1ccccc1 [Example 394] | > 10
4 | O=C(O)C[C@@H]1N/C(=N/c2ccc(CCNc3nc4cc(Cl)c(Cl)cc4s3)cc2)SC1=O [Example 392] | > 10
5 | CS(=O)(=O)c1ccc2nc(NCCc3ccc(/N=C4/N[C@@H](CC(=O)O)C(=O)S4)cc3)sc2c1 [Example 353] | > 10
6 | O=C1SC(=Nc2ccc(CCNc3nc4ccc(Cl)cc4s3)cc2)N2CCCC12 (stereo not drawn) [Example 385] | > 10
7 | CSCC[C@@H]1N/C(=N/c2ccc(CCNc3nc4ccccc4s3)cc2)SC1=O [Example 395] | > 10
8 | COc1cccc2sc(NCCc3ccc(/N=C4\SC(=O)[C@@H]5CCCN45)cc3)nc12 [Example 366] | > 10
9 | CC(C)[C@@H]1N/C(=N/c2ccc(CCNc3nc4ccc(F)cc4s3)cc2)SC1=O [Example 374] | > 10
10 | CC(C)C[C@@H]1N/C(=N/c2ccc(CCNc3nc4cc(Cl)c(Cl)cc4s3)cc2)SC1=O [Example 362] | > 10
11 | O=C1S/C(=N\c2ccc(CCNc3nc4ccc(F)cc4s3)cc2)N2CCC[C@@H]12 [Example 375] | > 10
12 | O=C1CN/C(=N\c2cccc(CCNc3nc4ccccc4s3)c2)S1 [Example 376] | > 10
13 | C[C@@H]1N/C(=N/c2ccc(CCNc3nc4ccc(Cl)cc4s3)cc2)SC1=O [Example 386] | > 10
14 | O=C1S/C(=N/c2cccc(CCNc3nc4ccccc4s3)c2)N2CCC[C@@H]12 [Example 408] | > 10
15 | O=C1CN/C(=N/c2ccc(CCNc3nc4cc(Cl)c(Cl)cc4s3)cc2)S1 [Example 391] | > 10
16 | CS(=O)(=O)c1ccc2nc(NCCc3ccc(/N=C4/N[C@@H](Cc5ccccc5)C(=O)S4)cc3)sc2c1 [Example 387] | > 10
17 | O=C1S/C(=N\c2ccc(CCNc3nc4cc(Cl)c(Cl)cc4s3)cc2)N[C@H]1Cc1ccccc1 [Example 360] | > 10
18 | CC(C)[C@@H]1N/C(=N\c2cccc(CCNc3nc4ccccc4s3)c2)SC1=O [Example 407] | > 10

same assay, conditions: Procedure A compounds, rated A/B/C

Row | Structure (SMILES) | Ki [µM]
19 | Cc1cccc2sc(NCCc3ccc(NC4=NCCS4)cc3)nc12 [Example 23] | 1 to 10
20 | CS(=O)(=O)c1ccc2nc(NCCc3ccc(NC4=NCCS4)cc3)sc2c1 [Example 15] | 1 to 10
21 | Clc1cc2nc(NCCc3ccc(NC4=NCCS4)cc3)sc2cc1Cl [Example 20] | 1 to 10

same assay, conditions: Procedure B compounds, rated A/B/C

Row | Structure (SMILES) | Ki [µM]
22 | CCOC(=O)N1CC2CCCN2/C1=N\c1ccc(CCNc2nc3ccccc3s2)cc1 (stereo not drawn) [Example 34] | > 10
23 | CC1N=C(Nc2ccc(CCNc3nc4ccccc4s3)cc2)N(C(=O)c2ccccc2)C1c1ccccc1 (stereo not drawn) [Example 31] | > 10
24 | O=C(c1ccccc1)N1CC2CCCN2/C1=N\c1ccc(CCNc2nc3ccccc3s2)cc1 (stereo not drawn) [Example 35] | > 10
25 | CCOC(=O)N1CCN=C1Nc1ccc(CCNc2nc3ccccc3s2)cc1 [Example 26] | > 10

same assay, conditions: Procedure C compounds, rated A/B/C

Row | Structure (SMILES) | Ki [µM]
26 | CCOC(=O)N1C(=O)[C@H](CC(=O)O)N=C1Nc1ccc(CCNc2nc3ccccc3s2)cc1 [Example 38] | > 10
27 | CCOC(=O)N1C(=O)[C@H](CCC(=O)O)N=C1Nc1ccc(CCNc2nc3ccccc3s2)cc1 [Example 40] | > 10
28 | CCOC(=O)N1C(=O)CN=C1Nc1ccc(CCNc2nc3ccccc3s2)cc1 [Example 36] | > 10

same assay, conditions: Procedure E compounds, rated A/B/C

Row | Structure (SMILES) | Ki [µM]
29 | CS(=O)(=O)c1ccc2nc(NCCc3ccc(/N=C4/NC5(CCCC5)CS4)cc3)sc2c1 [Example 117] | 1 to 10
30 | COc1ccc2nc(NCCc3ccc(/N=C4/N[C@@H](Cc5ccccc5)CS4)cc3)sc2c1 [Example 81] | 1 to 10
31 | CC[C@@H]1CS/C(=N\c2ccc(CCNc3nc4ccccc4s3)cc2)N1 [Example 269] | < 1
32 | CC[C@@H]1CS/C(=N\c2ccc(CCNc3nc4ccc(S(C)(=O)=O)cc4s3)cc2)N1 [Example 115] | 1 to 10
33 | c1ccc2sc(NCCc3ccc(/N=C4/N[C@@H](Cc5c[nH]cn5)CS4)cc3)nc2c1 [Example 270] | < 1
34 | c1cc(CCNc2nc3ccccc3s2)cc(/N=C2\N[C@H]3c4ccccc4CC3S2)c1 (stereo partly drawn) [Example 184] | > 10
35 | CS(=O)(=O)c1ccc2nc(NCCc3ccc(/N=C4/NC(c5ccccc5)CCS4)cc3)sc2c1 (stereo not drawn) [Example 64] | 1 to 10
36 | CC1CN/C(=N/c2ccc(CCNc3nc4cc(Cl)c(Cl)cc4s3)cc2)S1 (stereo not drawn) [Example 190] | > 10
37 | Fc1ccc2nc(NCCc3ccc(/N=C4/NC5(CCCC5)CS4)cc3)sc2c1 [Example 169] | < 1
38 | COc1cccc2sc(NCCc3ccc(/N=C4\SCCN4C)cc3)nc12 [Example 230] | > 10
39 | COc1ccc2nc(NCCc3ccc(/N=C4/NC(c5ccccc5)CCS4)cc3)sc2c1 (stereo not drawn) [Example 203] | < 1
40 | CC(C)CC1CCSC(Nc2ccc(CCNc3nc4ccccc4s3)cc2)=N1 (stereo not drawn) [Example 338] | < 1
41 | CC1CN/C(=N/c2ccc(CCNc3nc4ccc(Cl)cc4s3)cc2)S1 (stereo not drawn) [Example 331] | > 10
42 | COc1ccc2nc(NCCc3ccc(/N=C4/N[C@H](C)CS4)cc3)sc2c1 [Example 218] | 1 to 10
43 | CC1CN/C(=N/c2ccc(CCNc3nc4ccccc4s3)cc2)S1 (stereo not drawn) [Example 193] | > 10
44 | Cc1cccc2sc(NCCc3ccc(/N=C4/NCC(c5ccccc5)S4)cc3)nc12 (stereo not drawn) [Example 188] | > 10
45 | Fc1ccc2nc(NCCc3ccc(/N=C4/NCC(c5ccccc5)S4)cc3)sc2c1 (stereo not drawn) [Example 329] | > 10
46 | COc1cccc2sc(NCCc3ccc(/N=C4\SC5Cc6ccccc6[C@@H]5N4C)cc3)nc12 (stereo partly drawn) [Example 228] | > 10

Row | Structure (SMILES) | Ki [µM]
47 | C[C@@H]1N/C(=N\c2cccc(CCNc3nc4ccccc4s3)c2)SC1c1ccccc1 (stereo partly drawn) [Example 185] | < 1
48 | Cc1ccc2nc(NCCc3ccc(/N=C4\SC5CCC[C@H]5N4C)cc3)sc2c1 (stereo partly drawn) [Example 223] | > 10
49 | CCCC1CS/C(=N\c2ccc(CCNc3nc4ccc(C)cc4s3)cc2)N1 (stereo not drawn) [Example 91] | < 1
50 | Clc1cc2nc(NCCc3ccc(N=C4NCCCS4)cc3)sc2cc1Cl [Example 72] | < 1
51 | c1ccc(/N=C2\N[C@H]3c4ccccc4CC3S2)c(CCNc2nc3ccccc3s2)c1 (stereo partly drawn) [Example 183] | > 10
52 | COc1ccc(C2CCSC(Nc3ccc(CCNc4nc5ccccc5s4)cc3)=N2)cc1 (stereo not drawn) [Example 333] | < 1
53 | Fc1ccc2nc(NCCc3ccc(/N=C4/NC(c5ccccc5)CCS4)cc3)sc2c1 (stereo not drawn) [Example 210] | < 1
54 | Clc1ccccc1C1CCSC(Nc2ccc(CCNc3nc4ccccc4s3)cc2)=N1 (stereo not drawn) [Example 199] | < 1
55 | CC1CN/C(=N/c2ccc(CCNc3nc4ccc(S(C)(=O)=O)cc4s3)cc2)S1 (stereo not drawn) [Example 189] | > 10
56 | COc1ccc2nc(NCCc3ccc(/N=C4\SC[C@@H]5CCCN45)cc3)sc2c1 [Example 83] | > 10
57 | Cc1ccc2nc(NCCc3ccc(/N=C4/NC(C)(C)CS4)cc3)sc2c1 [Example 227] | < 1
58 | Clc1ccc2nc(NCCc3ccc(/N=C4/N[C@@H](Cc5c[nH]cn5)CS4)cc3)sc2c1 [Example 238] | 1 to 10
59 | C[C@@H]1CS/C(=N\c2ccc(CCNc3nc4ccc(Cl)cc4s3)cc2)N1 [Example 109] | 1 to 10
60 | CC1(C)CS/C(=N/c2cccc(CCNc3nc4ccccc4s3)c2)N1 [Example 321] | > 10
61 | c1ccc(CN2CCS/C2=N\c2ccc(CCNc3nc4ccccc4s3)cc2)cc1 [Example 74] | > 10
62 | CCC1CS/C(=N\c2ccc(CCNc3nc4ccc(Cl)cc4s3)cc2)N1 (stereo not drawn) [Example 103] | 1 to 10
63 | Cc1ccc2nc(NCCc3ccc(/N=C4/NCC(c5ccccc5)S4)cc3)sc2c1 (stereo not drawn) [Example 90] | > 10
64 | CC[C@@H]1CS/C(=N\c2ccc(CCNc3nc4ccc(C)cc4s3)cc2)N1 [Example 96] | < 1

same assay, conditions: Procedure G compounds, rated A/B/C

Row | Structure (SMILES) | Ki [µM]
65 | COc1ccc(-c2csc(Nc3ccc(CCNc4nc5ccccc5s4)cc3)n2)c(OC)c1 [Example 426] | > 10
66 | c1ccc(-c2ccc(-c3csc(Nc4ccc(CCNc5nc6ccccc6s5)cc4)n3)cc2)cc1 [Example 419] | > 10
67 | c1ccc(-c2csc(Nc3ccc(CCNc4nc5ccccc5s4)cc3)n2)cc1 [Example 423] | > 10
68 | c1ccc2cc(-c3csc(Nc4ccc(CCNc5nc6ccccc6s5)cc4)n3)ccc2c1 [Example 422] | > 10
69 | Cc1nc(Nc2ccc(CCNc3nc4ccccc4s3)cc2)sc1C [Example 428] | > 10
70 | Cc1ccc(-c2csc(Nc3ccc(CCNc4nc5ccccc5s4)cc3)n2)cc1 [Example 417] | > 10

same assay, conditions: Procedure H compounds, rated A/B/C

Row | Structure (SMILES) | Ki [µM]
71 | O=C1N=C(Nc2ccc(CCNc3nc4ccccc4s3)cc2)SC1c1ccccc1O (stereo not drawn) [Example 445] | > 10

same assay, conditions: Table 1, rated A/B/C

Row | Structure (SMILES) | Ki [µM]
72 | c1ccc([C@@H]2CSC(Nc3ccc(CCNc4nc5ccccc5s4)cc3)=N2)cc1 [Example 7] | < 1
73 | CC(C)CC1CCSC(Nc2ccc(CCNc3nc4ccccc4s3)cc2)=N1 (stereo not drawn) [Example 12] | < 1
74 | CC(C)C1CCSC(Nc2ccc(CCNc3nc4ccccc4s3)cc2)=N1 (stereo not drawn) [Example 10] | < 1
75 | Brc1ccc(C2CCSC(Nc3ccc(CCNc4nc5ccccc5s4)cc3)=N2)cc1 (stereo not drawn) [Example 5] | < 1

From patent US7459450B2, “Neuropeptide receptor modulators” (Schering Corporation, priority 2004, dated 2008)
